According to US12129240B2, “Sulfonium salt, photoacid generator, curable composition and resist composition” (SAN-APRO LTD., priority 2019, dated 2024):

Experiment: Evaluation of solubility in solvent
Assay type: physicochemical
Details: room temperature (25° C.), highest concentration completely dissolved; for Solubility Solvent-4: propylene carbonate; for Solubility Solvent-3: γ-butyrolactone

SMILES | Solubility Solvent-4 [wt %] | Solubility Solvent-3 [wt %]
O=c1c2ccccc2sc2ccc(Sc3ccc([S+](c4ccccc4)c4ccc5sc6ccccc6c(=O)c5c4)cc3)cc12 (stereo not drawn) [Comparative Example 2, reference compound] | 2 | 7
O=c1c2ccccc2sc2ccc(Sc3ccc([S+](c4ccccc4)c4ccc5sc6ccccc6c(=O)c5c4)cc3)cc12 (stereo not drawn) [Comparative Example 3, reference compound] | 32 | 23
O=c1c2ccccc2sc2ccc(Sc3ccc([S+](c4ccccc4)c4ccc5sc6ccccc6c(=O)c5c4)cc3)cc12 (stereo not drawn) [Comparative Example 4, reference compound] | 3 | 9
Cc1cccc([S+](c2ccc3sc4ccccc4c(=O)c3c2)c2ccc(Sc3ccc4sc5ccccc5c(=O)c4c3)cc2C)c1 (stereo not drawn) [Example 4, [2-methyl-4-(2-thioxanthonylthio)phenyl](3-methylphenyl) (2-thioxanthonyl)sulfonium Hexafluorophosphate] | 12 | 12
Cc1cccc([S+](c2ccc3sc4ccccc4c(=O)c3c2)c2ccc(Sc3ccc4sc5ccccc5c(=O)c4c3)cc2C)c1 (stereo not drawn) [Example 6, [2-methyl-4-(2-thioxanthonylthio)phenyl](3-methylphenyl) (2-thioxanthonyl)sulfonium tris(pentafluoroethyl) Trifluorophosphate] | 32 | 23
Cc1cccc([S+](c2ccc3sc4ccccc4c(=O)c3c2)c2ccc(Sc3ccc4sc5ccccc5c(=O)c4c3)cc2C)c1 (stereo not drawn) [Example 7, [2-methyl-4-(2-thioxanthonylthio)phenyl](3-methylphenyl) (2-thioxanthonyl)sulfonium Hexafluoroantimonate] | 15 | 15
COc1cccc([S+](c2ccc3sc4ccccc4c(=O)c3c2)c2ccc(Sc3ccc4sc5ccccc5c(=O)c4c3)cc2OC)c1 (stereo not drawn) [Example 12, [2-methoxy-4-(2-thioxanthonylthio)phenyl](3-methoxyphenyl) (2-thioxanthonyl)sulfonium Hexafluorophosphate] | 21 | 10
COc1cccc([S+](c2ccc3sc4ccccc4c(=O)c3c2)c2ccc(Sc3ccc4sc5ccccc5c(=O)c4c3)cc2OC)c1 (stereo not drawn) [Example 14, [2-methoxy-4-(2-thioxanthonylthio)phenyl](3-methoxyphenyl) (2-thioxanthonyl)sulfonium tris(pentafluoroethyl) Trifluorophosphate] | 32 | 31
COc1cccc([S+](c2ccc3sc4ccccc4c(=O)c3c2)c2ccc(Sc3ccc4sc5ccccc5c(=O)c4c3)cc2OC)c1 (stereo not drawn) [Example 15, [2-methoxy-4-(2-thioxanthonylthio)phenyl](3-methoxyphenyl) (2-thioxanthonyl)sulfonium Hexafluoroantimonate] | 20 | 18
CC(C)(C)c1cccc([S+](c2ccc3sc4ccccc4c(=O)c3c2)c2ccc(Sc3ccc4sc5ccccc5c(=O)c4c3)cc2C(C)(C)C)c1 (stereo not drawn) [Example 20, [2-tert-butyl-4-(2-thioxanthonylthio)phenyl](3-tert-butylphenyl) (2-thioxanthonyl)sulfonium Hexafluorophosphate] | 27 | 25
CC(C)(C)c1cccc([S+](c2ccc3sc4ccccc4c(=O)c3c2)c2ccc(Sc3ccc4sc5ccccc5c(=O)c4c3)cc2C(C)(C)C)c1 (stereo not drawn) [Example 22, [2-tert-butyl-4-(2-thioxanthonylthio)phenyl](3-tert-butylphenyl) (2-thioxanthonyl)sulfonium tris(pentafluoroethyl) Trifluorophosphate] | 33 | 38
CC(C)(C)c1cccc([S+](c2ccc3sc4ccccc4c(=O)c3c2)c2ccc(Sc3ccc4sc5ccccc5c(=O)c4c3)cc2C(C)(C)C)c1 (stereo not drawn) [Example 23, [2-tert-butyl-4-(2-thioxanthonylthio)phenyl](3-tert-butylphenyl) (2-thioxanthonyl)sulfonium Hexafluoroantimonate] | 24 | 25
Cc1cc(C)cc([S+](c2ccc3sc4ccccc4c(=O)c3c2)c2c(C)cc(Sc3ccc4sc5ccccc5c(=O)c4c3)cc2C)c1 (stereo not drawn) [Example 28, [2,6-dimethyl-4-(2-thioxanthonylthio)phenyl](3,5-dimethylphenyl) (2-thioxanthonyl)sulfonium Hexafluorophosphate] | 25 | 30
Cc1cc(C)cc([S+](c2ccc3sc4ccccc4c(=O)c3c2)c2c(C)cc(Sc3ccc4sc5ccccc5c(=O)c4c3)cc2C)c1 (stereo not drawn) [Example 30, [2,6-dimethyl-4-(2-thioxanthonylthio)phenyl](3,5-dimethylphenyl) (2-thioxanthonyl)sulfonium tris(pentafluoroethyl) Trifluorophosphate] | 33 | 40
Cc1cc(C)cc([S+](c2ccc3sc4ccccc4c(=O)c3c2)c2c(C)cc(Sc3ccc4sc5ccccc5c(=O)c4c3)cc2C)c1 (stereo not drawn) [Example 31, [2,6-dimethyl-4-(2-thioxanthonylthio)phenyl](3,5-dimethylphenyl) (2-thioxanthonyl)sulfonium Hexafluoroantimonate] | 23 | 25
Cc1ccc(C)c([S+](c2ccc3sc4ccccc4c(=O)c3c2)c2cc(C)c(Sc3ccc4sc5ccccc5c(=O)c4c3)cc2C)c1 (stereo not drawn) [Example 36, [2,5-dimethyl-4-(2-thioxanthonylthio)phenyl](2,5-dimethylphenyl) (2-thioxanthonyl)sulfonium Potassium Hexafluorophosphate] | 25 | 25
Cc1ccc(C)c([S+](c2ccc3sc4ccccc4c(=O)c3c2)c2cc(C)c(Sc3ccc4sc5ccccc5c(=O)c4c3)cc2C)c1 (stereo not drawn) [Example 38, [2,5-dimethyl-4-(2-thioxanthonylthio)phenyl](2,5-dimethylphenyl) (2-thioxanthonyl)sulfonium tris(pentafluoroethyl) Trifluorophosphate] | 33 | 40
Cc1ccc(C)c([S+](c2ccc3sc4ccccc4c(=O)c3c2)c2cc(C)c(Sc3ccc4sc5ccccc5c(=O)c4c3)cc2C)c1 (stereo not drawn) [Example 39, [2,5-dimethyl-4-(2-thioxanthonylthio)phenyl](2,5-dimethylphenyl) (2-thioxanthonyl)sulfonium Hexafluoroantimonate] | 23 | 29
Cc1cc([S+](c2ccc3sc4ccccc4c(=O)c3c2)c2cc(C(C)(C)C)ccc2C)c(C(C)(C)C)cc1Sc1ccc2sc3ccccc3c(=O)c2c1 (stereo not drawn) [Example 44, [2-tert-butyl-5-methyl-4-(2-thioxanthonylthio)phenyl](5-tert-butyl-2-methylphenyl) (2-thioxanthonyl)sulfonium Hexafluorophosphate] | 31 | 33
Cc1cc([S+](c2ccc3sc4ccccc4c(=O)c3c2)c2cc(C(C)(C)C)ccc2C)c(C(C)(C)C)cc1Sc1ccc2sc3ccccc3c(=O)c2c1 (stereo not drawn) [Example 46, [2-tert-butyl-5-methyl-4-(2-thioxanthonylthio)phenyl](5-tert-butyl-2-methylphenyl) (2-thioxanthonyl)sulfonium tris(pentafluoroethyl) Trifluorophosphate] | 33 | 49
Cc1cc([S+](c2ccc3sc4ccccc4c(=O)c3c2)c2cc(C(C)(C)C)ccc2C)c(C(C)(C)C)cc1Sc1ccc2sc3ccccc3c(=O)c2c1 (stereo not drawn) [Example 47, [2-tert-butyl-5-methyl-4-(2-thioxanthonylthio)phenyl](5-tert-butyl-2-methylphenyl) (2-thioxanthonyl)sulfonium Hexafluoroantimonate] | 30 | 33
Cc1ccc(C)c([S+](c2ccc3sc4ccccc4c(=O)c3c2)c2cc(C)c(Oc3ccc4sc5ccccc5c(=O)c4c3)cc2C)c1 (stereo not drawn) [Example 49, [2,5-dimethyl-4-(2-thioxanthonyloxy)phenyl](2,5-dimethylphenyl) (2-thioxanthonyl)sulfonium tris(pentafluoroethyl) Trifluorophosphate] | 38 | 45
Cc1ccc(C)c([S+](c2ccc3sc4ccccc4c(=O)c3c2)c2cc(C)c([S+]([O-])c3ccc4sc5ccccc5c(=O)c4c3)cc2C)c1 (stereo not drawn) [Example 50, [2,5-dimethyl-4-(2-thioxanthonylsulfinyl)phenyl](2,5-dimethylphenyl) (2-thioxanthonyl)sulfonium tris(pentafluoroethyl) Trifluorophosphate] | 30 | 40
Cc1ccc(C)c([S+](c2ccc3sc4ccccc4c(=O)c3c2)c2cc(C)c(S(=O)(=O)c3ccc4sc5ccccc5c(=O)c4c3)cc2C)c1 (stereo not drawn) [Example 51, [2,5-dimethyl-4-(2-thioxanthonylsulfonyl)phenyl](2,5-dimethylphenyl) (2-thioxanthonyl)sulfonium tris(pentafluoroethyl) Trifluorophosphate] | 32 | 40
